Experimental data taken from US11213524B2, “Pharmaceutical compositions for subcutaneous administration of levosimendan” (Tenax Therapeutics, Inc., priority 2018, dated 2022).

How the values were obtained:
[1] = cited from earlier work
[2] = Pharmacokinetic study, IV vs subcutaneous dosing, plasma levosimendan and OR-1896 by HPLC/MS/MS; settings: male, Sprague Dawley, rat, in vivo
Method: A pharmacokinetic study was conducted in male Sprague Dawley rats to compare subcutaneous administration of a composition of the present invention with IV administration of a formulation of levosimendan. The study evaluated levosimendan blood levels and pain at the injection site.
This study involved comparing the results of administering two subcutaneous compositions according to embodiments of the present invention to a previous pharmacokinetic study in which male rats were dosed by tail vein levosimendan as an IV bolus injection at 0.5 mg/kg using a 0.25 mg/ml solution. […]
Plasma samples were analyzed for levosimendan and OR-1896 (the primary metabolite) by HPLC/MS/MS. […]

[3] = Storage stability of lyophilized levosimendan/Captisol composition (HPLC % area); type: physicochemical; settings: for quantity of OR-1420: after 6 months
Method: A study was conducted to determine the stability of a levosimendan composition of the present invention stored under different conditions for up to six months.
The composition used for the study comprised 3 mg/ml of levosimendan and 200 mg/ml of Captisol®. To prepare the composition, the levosimendan and Captisol® were mixed together, adjusted to a pH of 7.4 using 1N NaOH, and then lyophilized.
Samples were dissolved in 50% acetonitrile and stored frozen at approximately −20° C. The compositions were analyzed at the following time points: 0, 1-month, 2-months, 4-months, and 6-months. The compositions were taken out of storage and reconstituted using distilled water. A sample from each composition was diluted at 15x-150x and analyzed using HPLC (Sciex API 3200 Linear Ion Trap, Shimadzu LC-20ADVP HPLC Pumps, Shimadzu Controller SCL-10AVP, Shimadzu Autosampler SIL-20ADVP) under the following conditions: Column, Restek Raptor Biphenyl, 2.7 μm, 100×3 mm; Mobile phase A, 5 mM Ammonium Formate/0.1% FA in H2O; Mobile phase B, 100% methanol).

[4] = Solubility of levosimendan at different Captisol concentrations (HPLC); type: physicochemical; settings: 10 mM phosphate buffer, pH 7, Captisol 0, 50, 100, 200, 400 mg/ml, room temperature
Method: A study was conducted to evaluate the impact of the concentration of the cyclodextrin or cyclodextrin derivative on the solubility of levosimendan. In particular, the study focused on the cyclodextrin derivative, Captisol® (sulfobutylether beta-cyclodextrin).
The study compared compositions comprising levosimendan, 10 mM phosphate buffer, and Captisol® at the following concentrations: 0 mg/ml (i.e., no Captisol®), 50 mg/ml, 100 mg/ml, 200 mg/ml, and 400 mg/ml. The compositions with Captisol® were prepared by mixing the levosimendan and Captisol®, and adding the 10 mM phosphate buffer until the pH of the composition was 7. The compositions were stored at room temperature.
Captisol®'s impact on the solubility of levosimendan was determined using HPLC.

[5] = after four months, 25° C./60% RH
[6] = after six months, 25° C./60% RH

## C[C@@H]1CC(=O)NN=C1c1ccc(NN=C(C#N)C#N)cc1 [levosimendan, (−)-enantiomer of [[4-(1,4,5,6-tetrahydro-4-methyl-6-oxo-3-pyridazinyl)phenyl]hydrazono]prop anedinitrile]
[1]; in vivo
  share of total levosimendan dose reduced in the intestine to OR-1855 (minor pathway): approximately 6%
  terminal elimination half-life of levosimendan: about 1 hour
[2]
  start of the β phase (loss of drug from blood mainly due to metabolism): about 2 hours
[3]; 3 mg/ml levosimendan, 200 mg/ml Captisol, lyophilized, T0
  Levels of Levosimendan (% Area): 99.98% Area
[3]; 5° C., 1-month
  Levels of Levosimendan (% Area): 99.85% Area
[3]; 5° C., 2-months
  Levels of Levosimendan (% Area): 100.00% Area
[3]; 5° C., 4-months
  Levels of Levosimendan (% Area): 99.74% Area
[3]; 5° C., 6-months
  Levels of Levosimendan (% Area): 99.73% Area
[3]; 25° C./60% RH, 1-month
  Levels of Levosimendan (% Area): 99.75% Area
[3]; 25° C./60% RH, 2-months
  Levels of Levosimendan (% Area): 99.79% Area
[3]; 25° C./60% RH, 4-months
  Levels of Levosimendan (% Area): 99.51% Area
[3]; 25° C./60% RH, 6-months
  Levels of Levosimendan (% Area): 99.49% Area
[3]; 40° C./75% RH, 1-month
  Levels of Levosimendan (% Area): 99.51% Area
[3]; 40° C./75% RH, 4-months
  Levels of Levosimendan (% Area): 98.88% Area
[3]; 40° C./75% RH, 6-months
  Levels of Levosimendan (% Area): 98.37% Area
[3]; after four months, 5° C.
  Level of Degradants (% Area): 99.91 % Area
[3]; [5]
  Level of Degradants (% Area): 99.64 % Area
[3]; after four months, −20° C.
  Level of Degradants (% Area): 99.93 % Area
[3]; after six months, 5° C.
  Level of Degradants (% Area): 99.90 % Area
[3]; [6]
  Level of Degradants (% Area): 99.57 % Area
[3]; each storage condition, after six months
  level of levosimendan: over 98%
[3]; −20° C., 1-month
  Levels of Levosimendan (% Area): 99.83% Area
[3]; −20° C., 4-months
  Levels of Levosimendan (% Area): 99.79% Area
[3]; −20° C., 6-months
  Levels of Levosimendan (% Area): 99.72% Area
[3]; −80° C., 1-month
  Levels of Levosimendan (% Area): 99.82% Area
[3]; −80° C., 4-months
  Levels of Levosimendan (% Area): 99.74% Area
[3]; −80° C., 6-months
  Levels of Levosimendan (% Area): 99.74% Area
[4]
  solubility of levosimendan: increased as the concentration of Captisol® increased

## C[C@@H]1CC(=O)NN=C1c1ccc(N/N=C(\C#N)C(N)=O)cc1 [OR-1420]
[3]; 5° C., 1-month
  Level of OR-1420 (% Area): 0.055% Area
[3]; 5° C., 4-months
  Level of OR-1420 (% Area): 0.057% Area
[3]; 5° C., 6-months
  Level of OR-1420 (% Area): 0.112% Area
[3]; 25° C./60% RH, 1-month
  Level of OR-1420 (% Area): 0.155% Area
[3]; 25° C./60% RH, 2-months
  Level of OR-1420 (% Area): 0.212% Area
[3]; 25° C./60% RH, 4-months
  Level of OR-1420 (% Area): 0.285% Area
[3]; 25° C./60% RH, 6-months
  Level of OR-1420 (% Area): 0.377% Area
[3]; 40° C./75% RH, 1-month
  Level of OR-1420 (% Area): 0.436% Area
[3]; 40° C./75% RH, 4-months
  Level of OR-1420 (% Area): 0.999% Area
[3]; 40° C./75% RH, 6-months
  Level of OR-1420 (% Area): 1.420% Area
[3]; 40° C./75% RH
  quantity of OR-1420: below 1.5%
[3]; T0
  Level of OR-1420 (% Area): 0.021% Area
[3]; after four months, 5° C.
  Level of Degradants (% Area): 0.057 % Area
[3]; [5]
  Level of Degradants (% Area): 0.285 % Area
[3]; after four months, 40° C./75% RH
  Level of Degradants (% Area): 0.999 % Area
[3]; after four months, −20° C.
  Level of Degradants (% Area): 0.045 % Area
[3]; after four months, −80° C.
  Level of Degradants (% Area): 0.084 % Area
[3]; after six months, 5° C.
  Level of Degradants (% Area): 0.112 % Area
[3]; [6]
  Level of Degradants (% Area): 0.377 % Area
[3]; after six months, 40° C./75% RH
  Level of Degradants (% Area): 1.42 % Area
[3]; after six months, −20° C.
  Level of Degradants (% Area): 0.082 % Area
[3]; after six months, −80° C.
  Level of Degradants (% Area): 0.083 % Area
[3]; all other storage conditions
  quantity of OR-1420: less than 0.5%
[3]; −20° C., 1-month
  Level of OR-1420 (% Area): 0.050% Area
[3]; −20° C., 4-months
  Level of OR-1420 (% Area): 0.045% Area
[3]; −20° C., 6-months
  Level of OR-1420 (% Area): 0.082% Area
[3]; −80° C., 1-month
  Level of OR-1420 (% Area): 0.055% Area
[3]; −80° C., 4-months
  Level of OR-1420 (% Area): 0.084% Area
[3]; −80° C., 6-months
  Level of OR-1420 (% Area): 0.083% Area

## CC(=O)Nc1ccc(C2=NNC(=O)C[C@H]2C)cc1 [OR-1896]
[1]; after starting a 24-hour infusion
  time at which maximum concentrations of OR-1896 are seen: 2 to 4 days
[1]; heart failure patients
  half-life of OR-1896: 70 to 80 h
